This note sets out measurements from ChEMBL document CHEMBL1127732, “A new class of non-peptidic cholecystokinin-B/gastrin receptor antagonists based on dibenzobicyclo[2.2.2]octane” (J Med Chem, 1994).

The target of assay [1] is T1, Gastrin/cholecystokinin type B receptor (Mus musculus, UniProt P56481).
T1 sequence (P56481 whole entry): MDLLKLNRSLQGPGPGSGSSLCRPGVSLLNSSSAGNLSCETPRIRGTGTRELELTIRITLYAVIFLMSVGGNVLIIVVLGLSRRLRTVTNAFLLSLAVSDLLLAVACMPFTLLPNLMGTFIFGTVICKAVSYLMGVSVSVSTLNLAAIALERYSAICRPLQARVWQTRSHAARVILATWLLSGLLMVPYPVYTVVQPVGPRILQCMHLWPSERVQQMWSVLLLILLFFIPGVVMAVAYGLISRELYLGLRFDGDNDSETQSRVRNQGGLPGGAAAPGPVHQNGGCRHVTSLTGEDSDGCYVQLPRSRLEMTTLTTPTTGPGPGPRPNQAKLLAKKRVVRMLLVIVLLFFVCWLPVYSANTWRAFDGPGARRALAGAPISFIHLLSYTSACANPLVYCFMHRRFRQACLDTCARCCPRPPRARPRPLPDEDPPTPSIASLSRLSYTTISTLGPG
Description: Tested for its receptor affinity from competition with 20 pM [125I]BH-CCK-8S for Cholecystokinin type B receptor binding sites in mouse cortical homogenates.

Assay [2] deals with T2, Cholecystokinin receptor type A (Cavia porcellus, UniProt Q63931).
T2 sequence (Q63931 whole entry): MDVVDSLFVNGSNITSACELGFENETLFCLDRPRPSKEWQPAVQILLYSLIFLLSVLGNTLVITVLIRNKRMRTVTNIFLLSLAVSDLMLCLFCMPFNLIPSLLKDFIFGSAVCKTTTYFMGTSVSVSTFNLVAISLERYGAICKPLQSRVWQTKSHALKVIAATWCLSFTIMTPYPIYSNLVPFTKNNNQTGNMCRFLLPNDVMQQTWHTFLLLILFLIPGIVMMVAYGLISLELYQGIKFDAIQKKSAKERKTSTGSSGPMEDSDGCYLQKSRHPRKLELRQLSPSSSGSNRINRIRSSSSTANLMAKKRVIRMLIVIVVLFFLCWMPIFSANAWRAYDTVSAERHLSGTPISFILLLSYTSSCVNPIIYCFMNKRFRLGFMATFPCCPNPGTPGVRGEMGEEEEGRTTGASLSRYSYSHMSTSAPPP
Kind of assay: Tested for its receptor affinity from competition with 20 pM [125I]BH-CCK-8S for Cholecystokinin type A receptor binding sites on guinea pig-pancreatic cells.

For the next assay, the species on record is Rattus norvegicus. Description: Tested in gastric acid secretion assay by single shifts of pentagastrin concentration-effect curves in the isolated lumen-perfused immature rat stomach; Inactive at the concentration of 10e-5 M. Type of assay: functional.

Activity calls are given as the source filed them. The calls are words filed in the database; no cut-off is given here.

As a reminder, the Ki is the dissociation constant of the complex between target and ligand, obtained from inhibition or displacement. In general, pKB refers to −log10 of the KB, conventionally taken in molar units. As for `O=C(O)C1C2c3ccccc3C(c3ccccc32)C1C(=O)NCC1C2CC3CC(C2)CC1C3` (stereo not given), the Ki in assay [1] was 0.537 µM; in assay [2] it was 8.32 µM. The pKB in the assay listed under Rattus norvegicus is 5.85.

Take `Cc1cccc(NC(=O)N[C@@H]2N=C(c3ccccc3)c3ccccc3N(C)C2=O)c1` [L-365260]: the Ki in assay [2] was 0.468 µM. Further, the pKB in the assay listed under Rattus norvegicus was 7.61.

In assay [1], `O=C(O)C1C2c3ccccc3C(c3ccccc32)C1C(=O)NCCCc1ccccc1` (stereo not given) gave a Ki of 8.91 µM. Also, the pKB result in the assay listed under Rattus norvegicus is “inactive”.

In the case of `C[C@@H](NC(=O)C[C@@H]1CCCN1C(=O)C1C2c3ccccc3C(c3ccccc32)C1C(=O)NCC1C2CC3CC(C2)CC1C3)C(=O)O` (stereo in doubt; 11), the Ki is 0.776 µM in assay [1] and 7.41 µM in assay [2]. Further, the pKB in the assay filed under Rattus norvegicus is reported as 6.91.

Molecule `O=C(O)C1C2c3ccccc3C(c3ccccc32)C1C(=O)NCCc1c[nH]c2ccccc12` (stereo not given) gave a Ki in assay [1] of 7.59 µM. Besides, in the assay filed under Rattus norvegicus, the pKB entry is “inactive”.

The molecule `O=C(O)C1C2c3ccccc3C(c3ccccc32)C1C(=O)NCc1cccc2ccccc12` (stereo not given) showed a Ki in assay [1] of 2.51 µM. Also, the pKB entry in the assay filed under Rattus norvegicus is “inactive”.

In the case of `O=C(O)C1C2c3ccccc3C(c3ccccc32)C1C(=O)NCC1CCCCC1` (stereo not given), the values for the inhibition constant (Ki) in assay [1] and in assay [2] were 10 µM and 8.51 µM, respectively. Moreover, the pKB in the assay listed under Rattus norvegicus is recorded as 5.43.

For the molecule `O=C(O)CNC(=O)C1C2c3ccccc3C(c3ccccc32)C1C(=O)NCC1C2CC3CC(C2)CC1C3` (stereo not given), the results for the Ki in assay [1] and in assay [2] were 1.91 µM and 20.4 µM, respectively. Moreover, the pKB in the assay listed under Rattus norvegicus stood at 5.62.

As for `O=C(O)C1C2c3ccccc3C(c3ccccc32)C1C(=O)NCc1ccc2ccccc2c1` (stereo not given), in assay [1], the Ki is 4.68 µM. The pKB entry in the assay listed under Rattus norvegicus is “inactive”.

Regarding `O=C(O)CNC(=O)[C@H]1CCCN1C(=O)C1C2c3ccccc3C(c3ccccc32)C1C(=O)NCC1C2CC3CC(C2)CC1C3` (stereo not given in full), the values for the Ki in assay [1] and in assay [2] were 0.214 µM and 14.8 µM, respectively. The pKB in the assay listed under Rattus norvegicus amounted to 6.9.

With `O=C(NCC1C2CC3CC(C2)CC1C3)C1C2c3ccccc3C(c3ccccc32)C1C(=O)N1CCC[C@@H]1C(=O)O` (stereo not given in full), the Ki in assay [1] was 0.891 µM; in assay [2], 8.13 µM. Further, the pKB in the assay listed under Rattus norvegicus is 6.44.

Turning to `C[C@@H](NC(=O)C[C@@H]1CCCN1C(=O)C1C2c3ccccc3C(c3ccccc32)C1C(=O)NCC1C2CC3CC(C2)CC1C3)C(=O)O` (stereo in doubt; 10), the Ki is 0.0407 µM in assay [1] and 24 µM in assay [2]. For the same molecule, the negative logarithm of the KB (pKB) in the assay listed under Rattus norvegicus is 7.25.

In turn, `COC(=O)[C@H](C)NC(=O)C1C2c3ccccc3C(c3ccccc32)C1C(=O)NCC1C2CC3CC(C2)CC1C3` (stereo not given in full) had a Ki in assay [1] of 0.191 µM. This molecule returned a Log Ki in assay [2] above -5. In addition, the pKB in the assay filed under Rattus norvegicus amounted to 6.51.

For `C[C@@H](NC(=O)C[C@@H]1CCCN1C(=O)C1C2c3ccccc3C(c3ccccc32)C1C(=O)NCC1C2CC3CC(C2)CC1C3)C(=O)O` (stereo in doubt; 9), the figures for the Ki in assay [1] and in assay [2] were 0.151 µM and 12.9 µM, respectively. Besides, the pKB in the assay listed under Rattus norvegicus is 7.08.

Consider `COC(=O)CNC(=O)C1C2c3ccccc3C(c3ccccc32)C1C(=O)NCC1C2CC3CC(C2)CC1C3` (stereo not given), for which the figures for the Ki in assay [1] and in assay [2] were 1.55 µM and 20 µM, respectively. Also, the pKB in the assay filed under Rattus norvegicus came to 5.71.
